Reference: article PMC12638379, “An innovative approach to development of new pyrazolylquinolin-2-one hybrids as dual EGFR and BRAF^V600E inhibitors” (Molecular Diversity, 2025)
Where two headings read alike, the source gives them in different places.

What was measured:
[1] = tested on: lung cancer (HOP-92) cell line; test: MTT antiproliferative assay, HOP-92; assay type: cell-based, human
Description: […]. […] See Appendix B.
(§1) After 24 h of culture incubation and supernatants discarded.

BRAF^V600E = BRAF^V600E (Homo sapiens, UniProt P15056, V600E); test: BRAF^V600E inhibitory assay (B-Raf (V600E) Kinase Assay); assay type: biochemical; settings: read-out: BRAF^V600E inhibition IC50 ± SEM
[2] = tested on: leukemia (MOLT-4) cell line; test: MTT antiproliferative assay, MOLT-4; assay type: cell-based, human
Description: as §1

NCI 60 cancer cell lines = test: NCI anticancer screening over a panel of 60 cancer cells, single concentration 10 µM; assay type: cell-based, human; settings: Homo sapiens, read-out: % Growth Inhibition (GI %)
Outline: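 Run under the NCI Compound Evaluation Branch protocol, each compound was tested once at 10 µM. The panel comprised 60 cancer cell lines of diverse tissue origin, including leukemia, lung, colon, CNS, renal, ovarian, breast and prostate.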

[3] = tested on: breast cancer (T47D) cell line; test: MTT antiproliferative assay, T-47D
Outline: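 HOP-92, MOLT-4 and T-47D cells in DMEM/10% FBS/insulin exposed 24 h to serial 10-fold dilutions […]; MTT added 2–4 h, absorbance at 570 nm with 690 nm background subtraction. Percent viable cells gives IC50; GI50 is the average IC50 across the three lines.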

normal cell line WI-38 = test: MTT cytotoxicity on normal cell line WI-38
[4] = MTT cytotoxicity on normal cell line WI-38; settings: human, WI-38 normal cells, % viability

BRAF^V600E, sequence (P15056 whole entry V600E): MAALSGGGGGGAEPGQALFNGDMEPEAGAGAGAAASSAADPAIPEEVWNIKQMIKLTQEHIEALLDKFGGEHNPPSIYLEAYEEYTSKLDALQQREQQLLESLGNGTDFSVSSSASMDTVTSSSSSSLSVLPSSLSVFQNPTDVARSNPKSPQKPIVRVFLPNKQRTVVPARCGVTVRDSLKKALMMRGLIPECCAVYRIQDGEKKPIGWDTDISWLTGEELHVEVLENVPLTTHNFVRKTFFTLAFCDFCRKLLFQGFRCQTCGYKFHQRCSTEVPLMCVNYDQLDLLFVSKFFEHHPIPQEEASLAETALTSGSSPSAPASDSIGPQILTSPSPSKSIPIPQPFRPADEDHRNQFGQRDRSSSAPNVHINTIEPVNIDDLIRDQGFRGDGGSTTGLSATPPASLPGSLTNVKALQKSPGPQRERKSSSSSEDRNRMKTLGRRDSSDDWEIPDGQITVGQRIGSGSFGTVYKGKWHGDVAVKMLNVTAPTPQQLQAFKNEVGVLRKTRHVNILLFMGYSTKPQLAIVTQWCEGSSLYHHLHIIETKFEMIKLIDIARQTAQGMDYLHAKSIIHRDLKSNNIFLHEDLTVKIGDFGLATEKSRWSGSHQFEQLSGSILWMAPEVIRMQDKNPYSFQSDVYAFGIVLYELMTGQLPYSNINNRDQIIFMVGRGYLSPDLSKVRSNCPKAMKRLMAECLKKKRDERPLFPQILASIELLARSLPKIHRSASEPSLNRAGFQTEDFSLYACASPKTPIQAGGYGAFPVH

## C/C(=N\Nc1ccc(C(=O)O)cc1)c1cnn(-c2cc(=O)[nH]c3ccc(C)cc23)c1C [Compound 4g, (E)-4-(2-(1-(5-methyl-1-(6-methyl-2-oxo-1,2-dihydroquinolin-4-yl)-1H-pyrazol-4-yl)ethylidene)hydrazineyl)benzoic acid]
[1]; HOP-92, MTT, 25uM, listed as Ws7, 25 µM
  % viability: 48.02%
[1]; HOP-92, MTT, 100uM, listed as Ws7, 100 µM
  % viability: 33.71%
[1]; Homo sapiens, HOP-92, HOP-92, MTT, 0.4uM, read-out: % viability
  viability at 0.4 µM: 78%
[1]; Homo sapiens, HOP-92, HOP-92, MTT, 1.6uM, read-out: % viability
  viability at 1.6 µM: 67%
[1]; Homo sapiens, HOP-92, HOP-92, MTT, 6.3uM, read-out: % viability
  viability at 6.3 µM: 56.5%
[1]; Homo sapiens, HOP-92, HOP-92, MTT, 25uM, read-out: % viability
  viability at 25 µM: 48%
[1]; Homo sapiens, HOP-92, HOP-92, MTT, 100uM, read-out: % viability
  viability at 100 µM: 33.7%
[1]; Homo sapiens, HOP-92, MTT, read-out: Antiproliferative activity IC50 ± SEM, HOP-92
  IC50: 14.7 ± 0.66 µM
BRAF^V600E
  IC50: 0.194 ± 0.008 µM
[2]; Homo sapiens, MOLT-4, MOLT-4, MTT, 0.4uM
  viability at 0.4 µM: 68.9%
[2]; Homo sapiens, MOLT-4, MOLT-4, MTT, 1.6uM
  viability at 1.6 µM: 54.8%
[2]; Homo sapiens, MOLT-4, MOLT-4, MTT, 6.3uM
  viability at 6.3 µM: 48.2%
[2]; Homo sapiens, MOLT-4, MOLT-4, MTT, 25uM
  viability at 25 µM: 42.4%
[2]; Homo sapiens, MOLT-4, MOLT-4, MTT, 100uM
  viability at 100 µM: 35.3%
[2]; Homo sapiens, MOLT-4, MTT, read-out: Antiproliferative activity IC50 ± SEM, MOLT-4
  IC50: 6.17 ± 0.25 µM
[2]; MOLT-4, MTT, 1.6uM, listed as Ws7, 1.6 µM
  % viability: 54.85%
[2]; MOLT-4, MTT, 6.3uM, listed as Ws7, 6.3 µM
  % viability: 48.2%
[2]; MOLT-4, MTT, 25uM, listed as Ws7, 25 µM
  % viability: 42.37%
[2]; MOLT-4, MTT, 100uM, listed as Ws7, 100 µM
  % viability: 35.35%
NCI 60 cancer cell lines; 786-0, Renal cancer 786-0, 10 μM
  inhibition at 10 µM: 6.84%
NCI 60 cancer cell lines; A498, Renal cancer A498, 10 μM
  inhibition at 10 µM: < 5%
NCI 60 cancer cell lines; A549, Non-small cell lung cancer A549/ATCC, 10 μM
  inhibition at 10 µM: < 5%
NCI 60 cancer cell lines; ACHN, Renal cancer ACHN, 10 μM
  inhibition at 10 µM: < 5%
NCI 60 cancer cell lines; BT-549, Breast cancer BT-549, 10 μM
  inhibition at 10 µM: 11.6%
NCI 60 cancer cell lines; CAKI-1, Renal cancer CAKI-1, 10 μM
  inhibition at 10 µM: 10.3%
NCI 60 cancer cell lines; CCRF-CEM, Leukemia CCRF-CEM, 10 μM
  inhibition at 10 µM: 6.98%
NCI 60 cancer cell lines; DU-145, Prostate cancer DU-145, 10 μM
  inhibition at 10 µM: < 5%
NCI 60 cancer cell lines; EKVX, Non-small cell lung cancer EKVX, 10 μM
  inhibition at 10 µM: 7.01%
NCI 60 cancer cell lines; HCC 2998, Colon cancer HCC-2998, 10 μM
  inhibition at 10 µM: < 5%
NCI 60 cancer cell lines; HL-60, Leukemia HL-60(TB), 10 μM
  inhibition at 10 µM: < 5%
NCI 60 cancer cell lines; HOP-62, Non-small cell lung cancer HOP-62, 10 μM
  inhibition at 10 µM: 6.86%
NCI 60 cancer cell lines; HOP-92, Non-small cell lung cancer HOP-92, 10 μM
  inhibition at 10 µM: 93.9%
NCI 60 cancer cell lines; HT-29, Colon cancer HT29, 10 μM
  inhibition at 10 µM: < 5%
NCI 60 cancer cell lines; Hs-578T, Breast cancer HS 578T, 10 μM
  inhibition at 10 µM: 7.48%
NCI 60 cancer cell lines; IGROV-1, Ovarian cancer IGROV1, 10 μM
  inhibition at 10 µM: < 5%
NCI 60 cancer cell lines; K562, Leukemia K-562, 10 μM
  inhibition at 10 µM: < 5%
NCI 60 cancer cell lines; LOX IMVI, Melanoma LOX IMVI, 10 μM
  inhibition at 10 µM: 5.11%
NCI 60 cancer cell lines; Leukemia SR, 10 μM
  inhibition at 10 µM: 11.4%
NCI 60 cancer cell lines; MCF7, Breast cancer MCF7, 10 μM
  inhibition at 10 µM: 9.62%
NCI 60 cancer cell lines; MDA-MB-231, Breast cancer MDA-MB-231/ATCC, 10 μM
  inhibition at 10 µM: 8.94%
NCI 60 cancer cell lines; MDA-MB-435, Melanoma MDA-MB-435, 10 μM
  inhibition at 10 µM: < 5%
NCI 60 cancer cell lines; MDA-MB-468, Breast cancer MDA-MB-468, 10 μM
  inhibition at 10 µM: 16.8%
NCI 60 cancer cell lines; Melanoma MALM-3M, 10 μM
  inhibition at 10 µM: 16.7%
NCI 60 cancer cell lines; NCI-H23, Non-small cell lung cancer NCI-H23, 10 μM
  inhibition at 10 µM: < 5%
NCI 60 cancer cell lines; NCI-H226, Non-small cell lung cancer NCI-H226, 10 μM
  inhibition at 10 µM: 9.91%
NCI 60 cancer cell lines; NCI-H322M, Non-small cell lung cancer NCI-H322M, 10 μM
  inhibition at 10 µM: < 5%
NCI 60 cancer cell lines; NCI-H460, Non-small cell lung cancer NCI-H460, 10 μM
  inhibition at 10 µM: < 5%
NCI 60 cancer cell lines; NCI-H522, Non-small cell lung cancer NCI-H522, 10 μM
  inhibition at 10 µM: 10.6%
NCI 60 cancer cell lines; NCI/ADR-RES, Ovarian cancer NCI/ADR-RES, 10 μM
  inhibition at 10 µM: < 5%
NCI 60 cancer cell lines; OVCAR-4, Ovarian cancer OVCAR-4, 10 μM
  inhibition at 10 µM: 5.43%
NCI 60 cancer cell lines; OVCAR-8, Ovarian cancer OVCAR-8, 10 μM
  inhibition at 10 µM: < 5%
NCI 60 cancer cell lines; Prostate cancer PC-3, 10 μM
  inhibition at 10 µM: 11.2%
NCI 60 cancer cell lines; RPMI-8226, Leukemia RPMI-8226, 10 μM
  inhibition at 10 µM: 14.9%
NCI 60 cancer cell lines; RXF 393, Renal cancer RXF 393, 10 μM
  inhibition at 10 µM: 6.27%
NCI 60 cancer cell lines; SF-539, CNS Cancer SF-539, 10 μM
  inhibition at 10 µM: < 5%
NCI 60 cancer cell lines; SK-MEL-2, Melanoma SK-MEL-2, 10 μM
  inhibition at 10 µM: < 5%
NCI 60 cancer cell lines; SK-MEL-28, Melanoma SK-MEL-28, 10 μM
  inhibition at 10 µM: < 5%
NCI 60 cancer cell lines; SK-OV-3, Ovarian cancer SK-OV-3, 10 μM
  inhibition at 10 µM: 5.67%
NCI 60 cancer cell lines; SN12C, Renal cancer SN12C, 10 μM
  inhibition at 10 µM: 7.44%
NCI 60 cancer cell lines; SNB-75, CNS Cancer SNB-75, 10 μM
  inhibition at 10 µM: 8.08%
NCI 60 cancer cell lines; TK-10, Renal cancer TK-10, 10 μM
  inhibition at 10 µM: < 5%
NCI 60 cancer cell lines; U-251, CNS Cancer U251, 10 μM
  inhibition at 10 µM: < 5%
NCI 60 cancer cell lines; UACC-62, Melanoma UACC-62, 10 μM
  inhibition at 10 µM: 8.46%
NCI 60 cancer cell lines; UACC-257, Melanoma UACC-257, 10 μM
  inhibition at 10 µM: < 5%
NCI 60 cancer cell lines; UO-31, Renal cancer UO-31, 10 μM
  inhibition at 10 µM: 32.1%
[3]; Homo sapiens, T47D, T-47D, 0.4uM (log conc. -0.41)
  viability at 0.4 µM: 68.5%
[3]; Homo sapiens, T47D, T-47D, 1.6uM (log conc. 0.19)
  viability at 1.6 µM: 61.7%
[3]; Homo sapiens, T47D, T-47D, 6.3uM (log conc. 0.8)
  viability at 6.3 µM: 55%
[3]; Homo sapiens, T47D, T-47D, 25uM (log conc. 1.4)
  viability at 25 µM: 44.6%
[3]; Homo sapiens, T47D, T-47D, 100uM (log conc. 2)
  viability at 100 µM: 34%
[3]; Homo sapiens, T47D, read-out: Antiproliferative activity IC50 ± SEM, T-47D, MTT
  IC50: 9.71 ± 0.34 µM
[3]; T-47D, 0.4uM (log conc. -0.41), listed as Ws7, 0.4 µM
  % viability: 68.49%
[3]; T-47D, 1.6uM (log conc. 0.19), listed as Ws7, 1.6 µM
  % viability: 61.66%
[3]; T-47D, 6.3uM (log conc. 0.8), listed as Ws7, 6.3 µM
  % viability: 55.01%
[3]; T-47D, 25uM (log conc. 1.4), listed as Ws7, 25 µM
  % viability: 44.58%
[3]; T-47D, 100uM (log conc. 2), listed as Ws7, 100 µM
  % viability: 33.98%
Normal cell line WI-38; Homo sapiens, read-out: Antiproliferative activity IC50 ± SEM
  IC50: 37.6 ± 1.5 µM
Normal cell line WI-38; WI38, 0.4uM (log conc. -0.41), listed as Ws7, 0.4 µM
  % viability: 80.43%
Normal cell line WI-38; WI38, 1.6uM (log conc. 0.19), listed as Ws7, 1.6 µM
  % viability: 70.19%
Normal cell line WI-38; WI38, 6.3uM (log conc. 0.8), listed as Ws7, 6.3 µM
  % viability: 62.8%
Normal cell line WI-38; WI38, 25uM (log conc. 1.4), listed as Ws7, 25 µM
  % viability: 51.55%
Normal cell line WI-38; WI38, 100uM (log conc. 2), listed as Ws7, 100 µM
  % viability: 44.1%
[4]; WI38, 0.4uM (log conc. -0.41)
  viability at 24 h, 0.4 µM: 80.4%
[4]; WI38, 1.6uM (log conc. 0.19)
  viability at 24 h, 1.6 µM: 70.2%
[4]; WI38, 6.3uM (log conc. 0.8)
  viability at 24 h, 6.3 µM: 62.8%
[4]; WI38, 25uM (log conc. 1.4)
  viability at 24 h, 25 µM: 51.6%
[4]; WI38, 100uM (log conc. 2)
  viability at 24 h, 100 µM: 44.1%
